# Entries after “also recorded” stand apart in the source; their conditions may differ.
# Legend:
# [1] = tested on: nitroreductase-transduced NIH3T3 cells; assay: Bystander effect, 3H-thymidine incorporation in mixtures of 3T3-NTR14 and untransduced NIH3T3 cells; format: cell-based; conditions: 50% transduced cells, FIG. 2
# Excerpt: FIG. 2. […] Results are plotted as the quantity of ^3 H-thymidine incorporation into live cells […] (Y-axis) versus the percentage of transduced cells in the sample population (X-axis).
# HB4a/NR cells [2] = assay: Cell survival of HB4a/NR cells, plates scored by eye for cell growth; format: cell-based, human; conditions: 2 hour exposure
# Protocol: (§1) Cells were trypsinised and resuspended in fresh media at 2×10^5 cells per mL. They were then treated for two hours with CB 1954 (10 μl of appropriate stock in DMSO). The treated cells were then spun down, washed with fresh media, and plated out in triplicate at various concentrations. Cells were fixed and stained after 14 days incubation at 37° C. in a humidified atmosphere of 5% CO2 and 95% air.
# (§2) The plating efficiency of both the HB4a/NR and HB4a/REP8 cell lines was poor and cells only grew when plated at a high initial cell density (1×10^4 per dish). These plates were scored by eye for cell growth. There is a dramatic difference in cell survival between the two cell lines.
# E. coli nitroreductase = E. coli nitroreductase (Escherichia coli, UniProt P38489); assay: % drug reduction by E. coli nitroreductase during V79 cell treatment; format: biochemical; conditions: 2 hours at 37° C.
# Excerpt: The initial cell density was 2×10^5 /mL.
# HB4a/NR cells [3] = assay: Enzymatic reduction of CB 1954 by HB4a/NR cell lysate (HPLC); format: biochemical, human; conditions: 100 μM CB 1954, 500 μM NADH, pH7, 37° C., FIG. 5
# Protocol: CB 1954 (100 μM) and NADH (500 μM) were incubated with a cell lysate prepared by sonication (250 μl, 1 mg/mL protein) in 10 mM sodium phosphate buffer (pH7) at 37° C. At various times aliquots (10 μl) were injected onto a Partisphere SCX (110×4.7 mm) HPLC column and eluted isocratically (2 ml/min) with 50 mM NaH2 PO4 in 1% (v/v) methanol. The eluate was continuously monitored for absorption at 260, 310, 340 nm using a diode-array detector. Alternatively, [U-^3 H]CB 1954 was added to give an activity of 1.6×10^5 dpm per nmole). Samples (0.3 ml) were collected and their tritium activity determined by liquid scintillation counting. Protein concentration was determined by a standard method (Biorad), calibrated against bovine albumin.
# HB4a/NR cells [4] = assay: DNA interstrand crosslinks, sedimentation in alkaline sucrose; format: cell-based, human
# Protocol: HB4a/NR cells were radiolabelled by growth for 48 hours in [^3 h]-thymidine. The cells were then treated with either 0, 10 or 50 μM CB 1954 for 24 hours and their DNA then analysed by sedimentation in alkaline sucrose.
# [5] = Cell survival of HB4a/REP8 cells, plates scored by eye for cell growth; format: cell-based; conditions: human, 2 hour exposure, read-out: dose up to which no cytotoxicity is shown
# Protocol: as §1, §2
# [6] = tested on: NTR-expressing NIH3T3 cells; assay: Killing of serum-deprived (arrested) NTR-expressing NIH3T3 cells; format: cell-based; conditions: arrest by serum deprivation, FIG. 3a
# Excerpt: (§3) FIG. 3. Two graphs comparing the nitroreductase/CB 1954 and thymidine kinase/gancyclovir enzyme/prodrug systems.
# [7] = tested on: TK-expressing NIH3T3 cells; assay: Killing of arrested TK-expressing NIH3T3 cells; format: cell-based; conditions: 10^-8 to 10^-3 M, FIG. 3b
# Excerpt: as §3
# [8] = 50 μM drug + 500 μM NADH, no nitroreductase
# [9] = 50 μM drug + nitroreductase 2 μg/ml + 500 μM NADH
# [10] = 50 μM drug + nitroreductase 2 μg/ml, no NADH
# [11] = 50 μM drug alone, no NADH, no nitroreductase
# Protocol for V79 cells: NADH was used as a co-factor for both enzymes.
# All treatments were for 2 hours at 37° C. and the cells were then plated out for their resulting colony forming ability. The nitroreductase concentration was 2 μg/ml and NADH was used as a co-factor. The initial cell density was 2×10^5 /mL.
# Various concentrations of the prodrug were incubated with 1 mL of V79 cells (2×10^5 /mL), NADH (500 μL) and NR (2, 5 or 10 μg/mL) in PBS. After 2 h at 37° C., the cells were harvested and assayed for colony forming ability.
molecule,measurement,setting,value
Cc1c2oc3c(C)ccc(C(=O)N[C@@H]4C(=O)N[C@H](C(C)C)C(=O)N5CCC[C@H]5C(=O)N(C)CC(=O)N(C)[C@@H](C(C)C)C(=O)O[C@@H]4C)c3nc-2c(C(=O)N[C@@H]2C(=O)N[C@H](C(C)C)C(=O)N3CCC[C@H]3C(=O)N(C)CC(=O)N(C)[C@@H](C(C)C)C(=O)O[C@@H]2C)c(NC(=O)OCc2ccc([N+](=O)[O-])cc2)c1=O,cytotoxicity of the prodrug in the presence of NR,"V79 cells; NR 2, 5 or 10 μg/mL, NADH, 2 h at 37° C., FIG. 1",greatly enhanced in the presence of NR
"NC(=O)c1cc(N2CC2)c([N+](=O)[O-])cc1[N+](=O)[O-] [CB 1954, 5-(aziridin-1-yl)-2,4-dinitrobenzamide]",inhibition of 3H-thymidine incorporation,[1],90%
same,dose at which cytotoxicity is exhibited,HB4a/NR cells [2],1.0 µM
same,% DRUG REDUCTION,E. coli nitroreductase; [8],< 1.0%
same,% DRUG REDUCTION,E. coli nitroreductase; [9],72%
same,% DRUG REDUCTION,E. coli nitroreductase; [10],< 1.0%
same,% DRUG REDUCTION,E. coli nitroreductase; [11],< 1.0%
same,decrease in the concentration of CB 1954,HB4a/NR cells [3],time dependent decrease
same,DNA breaks,HB4a/NR cells [4]; 10 μM CB 1954 for 24 hours,25 per 10^9 daltons of DNA
same,DNA crosslinks,HB4a/NR cells [4]; 10 μM CB 1954 for 24 hours,about 6 per 10^9 daltons of DNA
same,DNA breaks,HB4a/NR cells [4]; 50 μM CB 1954 for 24 hours,28 per 10^9 daltons of DNA
same,DNA crosslinks,HB4a/NR cells [4]; 50 μM CB 1954 for 24 hours,12 per 10^9 daltons of DNA
same,MNTC at 2 h,[5],> 100 µM
same,effect of cell arrest on killing by the prodrug,[6],does not affect their killing; also recorded: does not affect the relative cytotoxicity
"Nc1nc(O)c2ncn(COC(CO)CO)c2n1 [GCV, gancyclovir]",effect of cell arrest on killing by the prodrug,[7],prevents GCV killing; also recorded: prevents gancyclovir (GCV) cytotoxicity
"NC(=O)c1cc(N(CCCl)CCCl)c([N+](=O)[O-])cc1[N+](=O)[O-] [SN23862, 5-(bis(2'-chloroethyl)amino)-2,4-dinitrobenzamide]",% DRUG REDUCTION,E. coli nitroreductase; [8],< 1.0%
same,% DRUG REDUCTION,E. coli nitroreductase; [9],95%
same,% DRUG REDUCTION,E. coli nitroreductase; [10],< 1.0%
same,% DRUG REDUCTION,E. coli nitroreductase; [11],< 1.0%
"Nitroreductase: E. coli nitroreductase, enzyme that converts the prodrug into a cytotoxic drug (protein) MDIISVALKRHSTKAFDASKKLTPEQAEQIKTLLQYSPSSTNSQPWHFIVASTEEGKARVAKSAAGNYVFNERKMLDASHVVVFCAKTAMDDVWLKLVVDQEDADGRFATPEAKAANDKGRKFFADMHRKDLHDDAEWMAKQVYLNVGNFLLGVAALGLDAVPIEGFDAAILDAEFGLKEKGYTSLVVVPVGHHSVEDFNATLPKSRLPQNITLTEV",% SURVIVAL,"V79 cells; nitroreductase 2 μg/ml alone, no drug, 2 hours at 37° C.",94%

# From patent publication US5958682A (priority 1993, dated 1999)
